Results as given in patent US20240368118A1, “CEREBLON BINDING COMPOUNDS, COMPOSITIONS THEREOF, AND METHODS OF TREATMENT THEREWITH” (CELGENE CORPORATION, priority 2021, published 2024).

Molecular target: T1, AR (Homo sapiens, UniProt P10275)
T1 construct: endogenous in cells; host or cells: VCaP cells
T1 sequence (P10275 1-920): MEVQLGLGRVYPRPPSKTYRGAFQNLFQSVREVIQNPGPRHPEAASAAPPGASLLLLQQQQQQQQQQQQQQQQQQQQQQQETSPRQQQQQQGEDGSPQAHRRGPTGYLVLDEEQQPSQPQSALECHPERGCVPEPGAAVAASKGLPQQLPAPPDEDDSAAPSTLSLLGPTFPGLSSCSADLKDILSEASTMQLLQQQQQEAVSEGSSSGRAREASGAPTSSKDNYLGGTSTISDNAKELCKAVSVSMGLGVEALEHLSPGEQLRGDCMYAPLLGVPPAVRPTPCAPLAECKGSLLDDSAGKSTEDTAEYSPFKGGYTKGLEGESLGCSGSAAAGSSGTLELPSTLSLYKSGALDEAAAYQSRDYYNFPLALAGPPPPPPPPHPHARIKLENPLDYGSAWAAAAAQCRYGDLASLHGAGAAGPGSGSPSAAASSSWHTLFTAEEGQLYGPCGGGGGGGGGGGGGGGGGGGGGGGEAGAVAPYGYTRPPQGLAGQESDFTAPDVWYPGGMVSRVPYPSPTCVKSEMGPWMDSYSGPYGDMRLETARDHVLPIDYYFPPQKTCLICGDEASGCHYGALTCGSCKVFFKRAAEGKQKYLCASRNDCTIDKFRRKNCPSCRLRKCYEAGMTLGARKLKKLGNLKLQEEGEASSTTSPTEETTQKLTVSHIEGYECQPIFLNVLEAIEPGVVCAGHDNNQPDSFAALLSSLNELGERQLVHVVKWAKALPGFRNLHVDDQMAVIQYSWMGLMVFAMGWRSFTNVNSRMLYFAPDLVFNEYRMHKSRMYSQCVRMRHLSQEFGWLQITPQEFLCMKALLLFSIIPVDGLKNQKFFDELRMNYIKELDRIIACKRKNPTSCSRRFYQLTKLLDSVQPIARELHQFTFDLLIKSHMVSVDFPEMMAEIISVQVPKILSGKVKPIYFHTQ
Assay: VCAP AR Degradation Assay
Assay type: cell-based
Conditions: VCaP cells, 24 h; for DC50: AR ELISA, concentration when AR level = 50% of DMSO control; for Ymin: lowest AR level normalized to DMSO control, given as numbers
Description: VCAP AR Degradation Assay. Test compounds were pre-dispensed into a Corning CellBind 96-well clear bottom plate (Cat #3300) using an acoustic dispenser to make a 10-point concentration series at 1:3 dilution for each compound. The final top concentration of each compound was 5 μM. DMSO at a final concentration of 0.1% was used as a control. VCaP cells cultured in DMEM with 8% fetal bovine serum (FBS) were seeded at 50K cells per well in a 200 μL volume into the compound plate and incubated at 37° C. in a C02 incubator for 24 h. The medium was carefully removed from the cells and the plate was placed on ice. One hundred μL of ice-cold 1× cell lysis buffer from Cell Signaling Technologies (Cat #9803) was added to each well of the cells and the plate was incubated at 4° C. on a shaker for 1 h. Fifteen μL of cell lysate was used for AR ELISA detection using a PathScan Total Sandwich AR ELISA kit (Cell Signaling Technology, Cat #12580). AR levels in compound-treated wells were normalized to that of DMSO control and expressed as percent of control (PoC) (y). A Four Parameter Logistic Model (Sigmoidal Dose-Response Model) was used to determine the compound's DC50, and EC50, using the following equation: […]
The lowest measured AR level normalized to DMSO control in response to compound treatment, termed Y value, was used to characterize the compound-mediated AR degradation efficiency.

| Compound | DC50 [nM] | Ymin |
| --- | --- | --- |
| C[C@@H]1C[C@@H](CCO[C@H]2CC[C@H](N3C(=S)N(c4cnc(C#N)c(C(F)(F)F)c4)C(=O)C3(C)C)CC2)C[C@H](C)N1CC(=O)Nc1ccc(C2CCC(=O)NC2=O)cc1 (stereo partly drawn) [Cmpd 29, 2-((2R,4s,6S)-4-(2-(((trans)-4-(3-(6-Cyano-5-(trifluoromethyl)pyridin-3-yl)-5,5-dimethyl-4-oxo-2-thioxoimidazolidin-1-yl)cyclohexyl)oxy)ethyl)-2,6-dimethylpiperidin-1-yl)-N-(4-(2,6-dioxopiperidin-3-yl)phenyl)acetamide] | ≤ 5 | 15 % of DMSO control |
| C[C@@H]1CN(CCCC[C@H]2CC[C@H](N3C(=S)N(c4ccc(C#N)c(C(F)(F)F)c4)C(=O)C3(C)C)CC2)C[C@H](C)N1CC(=O)Nc1ccc(C2CCC(=O)NC2=O)cc1 (stereo partly drawn) [Cmpd 30, 2-((2R,6S)-4-(4-((trans)-4-(3-(4-Cyano-3-(trifluoromethyl)phenyl)-5,5-dimethyl-4-oxo-2-thioxoimidazolidin-1-yl)cyclohexyl)butyl)-2,6-dimethylpiperazin-1-yl)-N-(4-(2,6-dioxopiperidin-3-yl)phenyl)acetamide] | ≤ 5 | 20 % of DMSO control |
| CC1(C)C(=O)N(c2ccc(C#N)c(C(F)(F)F)c2)C(=S)N1[C@H]1CC[C@H](OCCCN2CCN(CC(=O)Nc3cccc(C4CCC(=O)NC4=O)c3)[C@@H](C(F)(F)F)C2)CC1 (stereo partly drawn) [Cmpd 31, 2-((R)-4-(3-(((trans)-4-(3-(4-Cyano-3-(trifluoromethyl)phenyl)-5,5-dimethyl-4-oxo-2-thioxoimidazolidin-1-yl)cyclohexyl)oxy)propyl)-2-(trifluoromethyl)piperazin-1-yl)-N-(3-(2,6-dioxopiperidin-3-yl)phenyl)acetamide] | ≤ 5 | 21 % of DMSO control |
| CC1(C)C(=O)N(c2cnc(C#N)c(C(F)(F)F)c2)C(=S)N1[C@H]1CC[C@H](OCCCN2CCN(CC(=O)Nc3cccc(C4CCC(=O)NC4=O)c3)[C@@H](C(F)(F)F)C2)CC1 (stereo partly drawn) [Cmpd 32, 2-((R)-4-(3-(((trans)-4-(3-(6-Cyano-5-(trifluoromethyl)pyridin-3-yl)-5,5-dimethyl-4-oxo-2-thioxoimidazolidin-1-yl)cyclohexyl)oxy)propyl)-2-(trifluoromethyl)piperazin-1-yl)-N-(3-(2,6-dioxopiperidin-3-yl)phenyl)acetamide] | ≤ 5 | 20 % of DMSO control |
| CC1(C)C(=O)N(c2cnc(C#N)c(C(F)(F)F)c2)C(=S)N1[C@H]1CC[C@H](CCCN2CCN(CC(=O)Nc3ccc(C4CCC(=O)NC4=O)cc3)[C@@H](C(F)(F)F)C2)CC1 (stereo partly drawn) [Cmpd 33, 2-((R)-4-(3-((trans)-4-(3-(6-Cyano-5-(trifluoromethyl)pyridin-3-yl)-5,5-dimethyl-4-oxo-2-thioxoimidazolidin-1-yl)cyclohexyl)propyl)-2-(trifluoromethyl)piperazin-1-yl)-N-(4-(2,6-dioxopiperidin-3-yl)phenyl)acetamide] | 5 to 15 | 17 % of DMSO control |
| CC1(C)C(=O)N(c2cnc(C#N)c(C(F)(F)F)c2)C(=S)N1[C@H]1CC[C@H](OCCCN2CCN(CC(=O)Nc3ccc(C4CCC(=O)NC4=O)cc3)[C@@H](C(F)(F)F)C2)CC1 (stereo partly drawn) [Cmpd 34, 2-((R)-4-(3-(((trans)-4-(3-(6-Cyano-5-(trifluoromethyl)pyridin-3-yl)-5,5-dimethyl-4-oxo-2-thioxoimidazolidin-1-yl)cyclohexyl)oxy)propyl)-2-(trifluoromethyl)piperazin-1-yl)-N-(4-(2,6-dioxopiperidin-3-yl)phenyl)acetamide] | ≤ 5 | 12 % of DMSO control |
| CC1(C)C(=O)N(c2ccc(C#N)c(C(F)(F)F)c2)C(=S)N1[C@H]1CC[C@H](OCCCN2CCN(CC(=O)Nc3ccc(C4CCC(=O)NC4=O)cc3)[C@@H](C(F)(F)F)C2)CC1 (stereo partly drawn) [Cmpd 35, 2-((R)-4-(3-(((trans)-4-(3-(4-Cyano-3-(trifluoromethyl)phenyl)-5,5-dimethyl-4-oxo-2-thioxoimidazolidin-1-yl)cyclohexyl)oxy)propyl)-2-(trifluoromethyl)piperazin-1-yl)-N-(4-(2,6-dioxopiperidin-3-yl)phenyl)acetamide] | ≤ 5 | 21 % of DMSO control |
| CC1(C)C(=O)N(c2ccc(C#N)c(C(F)(F)F)c2)C(=S)N1[C@H]1CC[C@H](CCCN2CCN(CC(=O)Nc3ccc(C4CCC(=O)NC4=O)cc3)[C@@H](C(F)(F)F)C2)CC1 (stereo partly drawn) [Cmpd 36, 2-((R)-4-(3-((trans)-4-(3-(4-Cyano-3-(trifluoromethyl)phenyl)-5,5-dimethyl-4-oxo-2-thioxoimidazolidin-1-yl)cyclohexyl)propyl)-2-(trifluoromethyl)piperazin-1-yl)-N-(4-(2,6-dioxopiperidin-3-yl)phenyl)acetamide] | 15 to 100 | 24 % of DMSO control |
| C[C@@H]1C[C@H](OCCC[C@H]2CC[C@H](N3C(=S)N(c4ccc(C#N)c(C(F)(F)F)c4)C(=O)C3(C)C)CC2)C[C@H](C)N1CC(=O)Nc1ccc(C2CCC(=O)NC2=O)cc1 (stereo partly drawn) [Cmpd 37, 2-((2R,4r,6S)-4-(3-((trans)-4-(3-(4-Cyano-3-(trifluoromethyl)phenyl)-5,5-dimethyl-4-oxo-2-thioxoimidazolidin-1-yl)cyclohexyl)propoxy)-2,6-dimethylpiperidin-1-yl)-N-(4-(2,6-dioxopiperidin-3-yl)phenyl)acetamide] | 15 to 100 | 19 % of DMSO control |
| C[C@@H]1C[C@H](OCCC[C@H]2CC[C@H](N3C(=S)N(c4cnc(C#N)c(C(F)(F)F)c4)C(=O)C3(C)C)CC2)C[C@H](C)N1CC(=O)Nc1ccc(C2CCC(=O)NC2=O)cc1 (stereo partly drawn) [Cmpd 38, 2-((2R,4r,6S)-4-(3-((trans)-4-(3-(6-Cyano-5-(trifluoromethyl)pyridin-3-yl)-5,5-dimethyl-4-oxo-2-thioxoimidazolidin-1-yl)cyclohexyl)propoxy)-2,6-dimethylpiperidin-1-yl)-N-(4-(2,6-dioxopiperidin-3-yl)phenyl)acetamide] | 5 to 15 | 14 % of DMSO control |
| C[C@@H]1C[C@H](OCC[C@H]2CC[C@H](N3C(=S)N(c4cnc(C#N)c(C(F)(F)F)c4)C(=O)C3(C)C)CC2)C[C@H](C)N1CC(=O)Nc1ccc(C2CCC(=O)NC2=O)cc1 (stereo partly drawn) [Cmpd 39, 2-((2R,4r,6S)-4-(2-((trans)-4-(3-(6-Cyano-5-(trifluoromethyl)pyridin-3-yl)-5,5-dimethyl-4-oxo-2-thioxoimidazolidin-1-yl)cyclohexyl)ethoxy)-2,6-dimethylpiperidin-1-yl)-N-(4-(2,6-dioxopiperidin-3-yl)phenyl)acetamide] | ≤ 5 | 14 % of DMSO control |
| C[C@@H]1C[C@H](OCC[C@H]2CC[C@H](N3C(=S)N(c4ccc(C#N)c(C(F)(F)F)c4)C(=O)C3(C)C)CC2)C[C@H](C)N1CC(=O)Nc1ccc(C2CCC(=O)NC2=O)cc1 (stereo partly drawn) [Cmpd 40, 2-((2R,4r,6S)-4-(2-((trans)-4-(3-(4-Cyano-3-(trifluoromethyl)phenyl)-5,5-dimethyl-4-oxo-2-thioxoimidazolidin-1-yl)cyclohexyl)ethoxy)-2,6-dimethylpiperidin-1-yl)-N-(4-(2,6-dioxopiperidin-3-yl)phenyl)acetamide] | 5 to 15 | 21 % of DMSO control |
| C[C@@H]1C[C@H](OCCO[C@H]2CC[C@H](N3C(=S)N(c4cnc(C#N)c(C(F)(F)F)c4)C(=O)C3(C)C)CC2)C[C@H](C)N1CC(=O)Nc1ccc(C2CCC(=O)NC2=O)cc1 (stereo partly drawn) [Cmpd 41, 2-((2R,4r,6S)-4-(2-(((trans)-4-(3-(6-Cyano-5-(trifluoromethyl)pyridin-3-yl)-5,5-dimethyl-4-oxo-2-thioxoimidazolidin-1-yl)cyclohexyl)oxy)ethoxy)-2,6-dimethylpiperidin-1-yl)-N-(4-(2,6-dioxopiperidin-3-yl)phenyl)acetamide] | ≤ 5 | 17 % of DMSO control |
